≈ marks a conversion by molar mass, not a printed value. Read-outs that look alike come from different tables or passages of the source. Marks after values point to notes of the source that are not given here. Where a SMILES comes first, the peptide text is derived from it.
Legend:
[1] = tested on: Acinetobacter baumannii AYE; type: cell-based; details: for MIC on initial panels: medium and unit not given; for MIC on initial panels / MIC: in µg/mL
[2] = tested on: Pseudomonas aeruginosa PA01; assay: Antibacterial activity assay (broth microdilution MIC); type: cell-based; details: for MIC, Stability in serum (MH) / MIC on initial panels: in µg/mL; for MIC on initial panels: medium and unit not given
[3] = tested on: VR Enterococcus faecium NCTC 12204; assay: as above; type: cell-based; details: VRE12204, in µg/mL; for MIC on initial panels: medium and unit not given; for MIC: untitled table, medium/unit not given, values match RPMI of Table 2
P. aeruginosa RP73 = assay: as above; type: cell-based, Pseudomonas aeruginosa; details: in µg/mL; for MIC on initial panels: medium and unit not given; for MIC: untitled table, medium/unit not given
Method: Antibacterial activity assay.
Synergy experiments were performed following a checkerboard protocol.

HEK293 = assay: Cytotoxicity assay (XTT); type: cell-based, human; details: for Toxicity HEK293: unit not given; for Toxicity HEK293 (EC50), Peptide concentration: value printed in parentheses
Method: (§1) Cytotoxicity assay. HeLa and HEK293 cell lines were purchased from ECACC and cultured in Eagle's Minimum Essential Media (EMEM) containing glutamine, supplemented with 10% FBS and 1× non-essential amino acids (NEAA) at 37° C., 10% CO2. Cytotoxicity was measured by incubating starter cultures of cells for 24 hours in a 96 well plate, gently removing the supernatant and replacing it with dilutions of peptides and controls, incubating for a further 24 hours and then staining of the cells with the second generation tetrazolium dye, XTT. […]

HeLa = assay: Cytotoxicity assay (XTT); type: cell-based, human; set-up: Toxicity HeLa: unit not given beside the values; details: for Toxicity HeLa: unit not given; for Toxicity HeLa (EC50), Peptide concentration: value printed in parentheses
Method: as §1

A549 = assay: Cytotoxicity assay; type: cell-based; details: value printed in parentheses
Calu-3 = assay: Cytotoxicity assay; type: cell-based; details: value printed in parentheses
[4] = tested on: Staphylococcus aureus VRS-2 (VanA, VRSA); assay: microbe, parasite or virus in culture; details: VRS-2 (VanA)
Method: The S. aureus strains ATCC 29213, ATCC 19636, ATCC 33591 (MRSA), BAA-1556 (MRSA USA 300) were obtained from the American Type Culture Collection (ATCC). […] The species identity was confirmed with 16S rRNA analysis.
Two broth mediums were used, Mueller Hinton Broth and RPMI 1640+5% fetal bovine serum. Test substances were evaluated in 11-point titrations and performed in duplicate.
The direct colony suspension method was used to prepare inoculated broth. Isolated colonies were taken from an 18-24 h culture plate. Optical density measurements (OD620nm) were used to estimate the bacterial density. […] The stock solutions were diluted by 2-fold serial titrations with their respective vehicles for a total of 11 concentrations.
A 4 μL aliquot of each dilution was added to 196 μL of broth medium seeded with the organism in wells of a sterilized 96 well polypropylene plate (Nunc™ 249949) using aluminum foil as cover. The final bacterial count was 2 to 8×10^5 CFU/mL. […] The final test article concentration range was 32 to 0.0313 μg/mL.
Each test substance dilution was evaluated in duplicate on one test occasion. […] Plates were incubated at 35-37° C. for 18 h. The test plates were visually examined and each well was visually scored for growth or complete inhibition of growth. The MIC value was recorded.

[5] = Maximum Tolerated Dose (MTD) assessment, IV TID q8h: mortality, body weight, clinical observations; type: in vivo, mouse; details: 5 mg/kg (IV, TID, q8h)
[6] = AYE, Serum (10% fetal bovine serum)
[7] = AYE, untitled table, medium/unit not given, values match RPMI of Table 2
[8] = untitled table, medium/unit inferred, values match RPMI of Table 2

| Compound | MIC, Stability in serum (MH) ([1]; AYE, No serum) [µg/mL] | MIC, Stability in serum (MH) [1, 6] [µg/mL] | MIC on initial panels ([1]; AYE) | MIC [1, 7] | MIC, Stability in serum (MH) ([2]; No serum) | MIC, Stability in serum (MH) ([2]; Serum (10% fetal bovine serum)) | MIC on initial panels [2] | MIC [2, 8] [µg/mL] | MIC on initial panels [3] | MIC [3] | MIC ([1]; AYE, (MH)) | MIC ([1]; AYE, (RPMI)) | MIC on initial panels (P. aeruginosa RP73) | MIC (P. aeruginosa RP73) | Toxicity HEK293 (HEK293) | Toxicity HEK293 (EC50), Peptide concentration (HEK293) | Toxicity HeLa (HeLa) | Toxicity HeLa (EC50), Peptide concentration (HeLa) | Toxicity A549 (EC50), Peptide concentration (A549) | Toxicity Calu-3 (EC50), Peptide concentration (Calu-3) | also measured |
| --- | --- | --- | --- | --- | --- | --- | --- | --- | --- | --- | --- | --- | --- | --- | --- | --- | --- | --- | --- | --- | --- |
| CC(C)C[C@@H](NC(=O)[C@@H](Cc1ccc(O)cc1)NC(=O)[C@@H](Cc1c[nH]cn1)NC(=O)[C@H](NC(=O)[C@@H](CC(C)C)NC(=O)[C@@H](C)NC(=O)[C@@H](C)NC(=O)[C@@H](CCCNC(=N)N)NC(=O)CNC(=O)[C@H](NC(=O)[C@@H](Cc1c[nH]cn1)NC(=O)[C@@H](CCCNC(=N)N)NC(=O)CNC(=O)[C@H](NC(=O)[C@@H](Cc1c[nH]cn1)NC(=O)[C@@H](C)NC(=O)[C@@H](C)NC(=O)[C@@H](CCCNC(=N)N)NC(=O)[C@@H](CCCNC(=N)N)NC(=O)[C@@H](Cc1ccccc1)NC(=O)[C@@H](Cc1ccccc1)NC(=O)[C@@H](CO)NC(=O)CNC(=O)[C@@H](Cc1c[nH]c2ccccc12)NC(=O)CN)C(C)C)C(C)C)[C@H](C)O)C(N)=O [D-pleurocidin-KR] (HELM PEPTIDE1{G.[dW].G.[dS].[dF].[dF].[dR].[dR].[dA].[dA].[dH].[dV].G.[dR].[dH].[dV].G.[dR].[dA].[dA].[dL].[dT].[dH].[dY].[dL].[am]}$$$$V2.0; N-terminus assumed) | 2 (≈ 0.709 µM) | 0.5 (≈ 0.177 µM) | 2 | 2 | 4 | 4 | 4 | 16 (≈ 5.67 µM) | 2 | 2 | – | – | 16 | 33 | 36.4 ± 4.3 | (36.4 ± 4.3) μg/ml | 25.3 ± 2.2 | (25.3 ± 2.2) μg/ml | (56.5 ± 4.5) μg/ml | (39.1 ± 1.8) μg/ml | MIC [4]: 2 µg/mL (≈ 0.709 µM); tolerability [5]: tolerated |
| CC(C)C[C@H](NC(=O)[C@H](Cc1ccc(O)cc1)NC(=O)[C@H](Cc1c[nH]cn1)NC(=O)[C@@H](NC(=O)[C@H](CC(C)C)NC(=O)[C@H](C)NC(=O)[C@H](C)NC(=O)[C@H](CCCNC(=N)N)NC(=O)CNC(=O)[C@@H](NC(=O)[C@H](Cc1c[nH]cn1)NC(=O)[C@H](CCCNC(=N)N)NC(=O)CNC(=O)[C@@H](NC(=O)[C@H](Cc1c[nH]cn1)NC(=O)[C@H](C)NC(=O)[C@H](C)NC(=O)[C@H](CCCNC(=N)N)NC(=O)[C@H](CCCNC(=N)N)NC(=O)[C@H](Cc1ccccc1)NC(=O)[C@H](Cc1ccccc1)NC(=O)[C@H](CO)NC(=O)CNC(=O)[C@H](Cc1c[nH]c2ccccc12)NC(=O)CN)C(C)C)C(C)C)[C@@H](C)O)C(N)=O [Pleurocidin-KR] (H-GWGSFFRRAAHVGRHVGRAALTHYL-NH2; N-terminus assumed) | 2 (≈ 0.709 µM) | 2 (≈ 0.709 µM) | 1-2 | 8-16 | 4 | >128 | 4 | > 32 | 4 | 16 | – | – | – | – | 40.1 ± 4.1 | (40.1 ± 4.1) μg/ml | 30.7 ± 2.6 | (30.7 ± 2.6) μg/ml | – | – | MIC, Peptide concentration ([1]; RPMI (value in parentheses)): 8 to 16 µg/mL |
| CC(C)C[C@H](NC(=O)[C@H](Cc1ccc(O)cc1)NC(=O)[C@H](Cc1c[nH]cn1)NC(=O)[C@@H](NC(=O)[C@H](CC(C)C)NC(=O)[C@H](C)NC(=O)[C@H](C)NC(=O)[C@H](CCCCN)NC(=O)CNC(=O)[C@H](C)NC(=O)[C@H](Cc1c[nH]cn1)NC(=O)[C@H](CCCCN)NC(=O)CNC(=O)[C@H](C)NC(=O)[C@H](Cc1c[nH]cn1)NC(=O)[C@H](C)NC(=O)[C@H](C)NC(=O)[C@H](CCCCN)NC(=O)[C@H](CCCCN)NC(=O)[C@H](Cc1ccccc1)NC(=O)[C@H](Cc1ccccc1)NC(=O)[C@H](CO)NC(=O)CNC(=O)[C@H](Cc1c[nH]c2ccccc12)NC(=O)CN)[C@@H](C)O)C(N)=O [Pleurocidin-VA] (H-GWGSFFKKAAHAGKHAGKAALTHYL-NH2; N-terminus assumed) | 2 (≈ 0.754 µM) | 4 (≈ 1.51 µM) | 2 | 16 | 16* | >128 | 16-32 | > 32 | 32-64 | 32 | – | – | – | – | ~400 | (~400) μg/ml | >400 | (>400) μg/ml | – | – | MIC, Peptide concentration ([1]; AYE): 16 µg/mL (≈ 6.03 µM) |

Further lines, with some results ahead:

| MIC, Stability in serum (MH) ([1]; AYE, No serum) [µg/mL] | MIC, Stability in serum (MH) [1, 6] [µg/mL] | MIC on initial panels ([1]; AYE) | MIC [1, 7] | MIC, Stability in serum (MH) ([2]; No serum) | MIC, Stability in serum (MH) ([2]; Serum (10% fetal bovine serum)) | MIC on initial panels [2] | MIC [2, 8] [µg/mL] | MIC on initial panels [3] | MIC [3] | MIC ([1]; AYE, (MH)) | MIC ([1]; AYE, (RPMI)) | Compound | MIC on initial panels (P. aeruginosa RP73) | MIC (P. aeruginosa RP73) | Toxicity HEK293 (HEK293) | Toxicity HEK293 (EC50), Peptide concentration (HEK293) | Toxicity HeLa (HeLa) | Toxicity HeLa (EC50), Peptide concentration (HeLa) | Toxicity A549 (EC50), Peptide concentration (A549) | Toxicity Calu-3 (EC50), Peptide concentration (Calu-3) | also measured |
| --- | --- | --- | --- | --- | --- | --- | --- | --- | --- | --- | --- | --- | --- | --- | --- | --- | --- | --- | --- | --- | --- |
| 2 (≈ 0.738 µM) | 2 (≈ 0.738 µM) | 1 | 2 | 2 | 4 | 2 | 16 (≈ 5.9 µM) | 16 | 4 | 1 | 2 | CC(C)C[C@@H](NC(=O)[C@@H](Cc1ccc(O)cc1)NC(=O)[C@@H](Cc1c[nH]cn1)NC(=O)[C@H](NC(=O)[C@@H](CC(C)C)NC(=O)[C@@H](C)NC(=O)[C@@H](C)NC(=O)[C@@H](CCCCN)NC(=O)CNC(=O)[C@H](NC(=O)[C@@H](Cc1c[nH]cn1)NC(=O)[C@@H](CCCCN)NC(=O)CNC(=O)[C@H](NC(=O)[C@@H](Cc1c[nH]cn1)NC(=O)[C@@H](C)NC(=O)[C@@H](C)NC(=O)[C@@H](CCCCN)NC(=O)[C@@H](CCCCN)NC(=O)[C@@H](Cc1ccccc1)NC(=O)[C@@H](Cc1ccccc1)NC(=O)[C@@H](CO)NC(=O)CNC(=O)[C@@H](Cc1c[nH]c2ccccc12)NC(=O)CN)C(C)C)C(C)C)[C@H](C)O)C(N)=O [D-pleurocidin] (HELM PEPTIDE1{G.[dW].G.[dS].[dF].[dF].[dK].[dK].[dA].[dA].[dH].[dV].G.[dK].[dH].[dV].G.[dK].[dA].[dA].[dL].[dT].[dH].[dY].[dL].[am]}$$$$V2.0; N-terminus assumed) | 8-16 | 16-32 | 61.4 ± 3.9 | (61.4 ± 3.9) μg/ml | 47.1 ± 2.1 | (47.1 ± 2.1) μg/ml | (79.3 ± 7.2) μg/ml | (41.9 ± 1.8) μg/ml | MIC ([2]; (MH)): 2 µg/mL (≈ 0.738 µM); MIC ([2]; (RPMI)): 16 µg/mL (≈ 5.9 µM) |
| 2 (≈ 0.738 µM) | 2 (≈ 0.738 µM) | 1-2 | 4-8 | 16 | 32 | 64 | > 32 | 16-32 | 32 | 1-2 | 4-8 | CC(C)C[C@H](NC(=O)[C@H](Cc1ccc(O)cc1)NC(=O)[C@H](Cc1c[nH]cn1)NC(=O)[C@@H](NC(=O)[C@H](CC(C)C)NC(=O)[C@H](C)NC(=O)[C@H](C)NC(=O)[C@H](CCCCN)NC(=O)CNC(=O)[C@@H](NC(=O)[C@H](Cc1c[nH]cn1)NC(=O)[C@H](CCCCN)NC(=O)CNC(=O)[C@@H](NC(=O)[C@H](Cc1c[nH]cn1)NC(=O)[C@H](C)NC(=O)[C@H](C)NC(=O)[C@H](CCCCN)NC(=O)[C@H](CCCCN)NC(=O)[C@H](Cc1ccccc1)NC(=O)[C@H](Cc1ccccc1)NC(=O)[C@H](CO)NC(=O)CNC(=O)[C@H](Cc1c[nH]c2ccccc12)NC(=O)CN)C(C)C)C(C)C)[C@@H](C)O)C(N)=O [Pleurocidin, reference compound] (H-GWGSFFKKAAHVGKHVGKAALTHYL-NH2; N-terminus assumed) | – | – | 87.5 ± 11.1 | (87.5 ± 11.1) μg/ml | 58.2 ± 3.9 | (58.2 ± 3.9) μg/ml | – | – | MIC ([2]; (MH)): 64 µg/mL (≈ 23.6 µM); MIC ([2]; (RPMI)): > 32 µg/mL |
